Experimental data: US20020137929A1, “1 - (3-heterocyclylphenyl) isothiourea, -isourea, -guanidine and -amidine herbicidal agents” (Intellectual Property Department, BASF Aktiengesellschaft, priority 1998, published 2002)

Assays:
[1] = test system: ABUTH (Velvetleaf); assay: Postemergence herbicidal evaluation; assay type: in vivo, Abutilon theophrasti; details: postemergence
Summary of the method: (§1)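 Compound is applied as a foliar spray to seedlings about two weeks old, formulated in equal parts acetone and water with 0.5% TWEEN 20 and delivered at 40 psi to give about 0.0156–0.500 kg per hectare. Injury is rated visually 0–9 after four to five weeks.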

[2] = test system: CHEAL (Lambsquarters, Common); assay: Postemergence herbicidal evaluation; assay type: in vivo, Chenopodium album; details: postemergence
Summary of the method: as §1

[3] = test system: IPOHE (Morningglory, Ivyleaf); assay: Postemergence herbicidal evaluation; assay type: in vivo, Ipomoea hederacea; details: postemergence
Summary of the method: as §1

[4] = test system: ECHCG (Barnyardgrass); assay: Postemergence herbicidal evaluation; assay type: in vivo, Echinochloa crus-galli; details: postemergence
Summary of the method: as §1

[5] = test system: SETVI (Foxtail, Green); assay: Postemergence herbicidal evaluation; assay type: in vivo, Setaria viridis; details: postemergence
Summary of the method: as §1

[6] = test system: ORYSAT (Rice, Tebonnet); assay: Postemergence herbicidal evaluation; assay type: in vivo, Oryza sativa, (L.) Tebonnet; details: postemergence
Summary of the method: as §1

[7] = test system: ZEAMX (Corn, Field); assay: Postemergence herbicidal evaluation; assay type: in vivo, Zea mays; details: postemergence
Summary of the method: as §1

[8] = test system: ABUTH (Velvetleaf); assay: Preemergence herbicidal evaluation; assay type: in vivo, Abutilon theophrasti; details: rated 4-5 weeks after treatment
Summary of the method: (§2)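 Visual 0-9 rating vs control (stand, vigor, malformation, size, chlorosis, overall appearance), scored 4-5 wk after spraying. Seeded soil cups were treated preemergence with compound in aqueous acetone, ~0.0156-0.500 kg/ha equivalent.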

[9] = test system: CASOB (Sicklepod); assay: Preemergence herbicidal evaluation; assay type: in vivo, Cassia obtusifolia; details: rated 4-5 weeks after treatment
Summary of the method: as §2

[10] = test system: CHEAL (Lambsquarters, Common); assay: Preemergence herbicidal evaluation; assay type: in vivo, Chenopodium album; details: rated 4-5 weeks after treatment
Summary of the method: as §2

[11] = test system: IPOHE (Morningglory, Ivyleaf); assay: Preemergence herbicidal evaluation; assay type: in vivo, Ipomoea hederacea; details: rated 4-5 weeks after treatment
Summary of the method: as §2

[12] = test system: ECHCG (Barnyardgrass); assay: Preemergence herbicidal evaluation; assay type: in vivo, Echinochloa crus-galli; details: rated 4-5 weeks after treatment
Summary of the method: as §2

[13] = test system: GLXMAW (Soybean, Williams); assay: Preemergence herbicidal evaluation; assay type: in vivo, Glycine max, (L.) Merr. cv Williams; details: rated 4-5 weeks after treatment
Summary of the method: as §2

[14] = test system: TRZAWR (Wheat, Winter, cv Riband); assay: Preemergence herbicidal evaluation; assay type: in vivo, Triticum aestivum; details: rated 4-5 weeks after treatment
Summary of the method: as §2

[15] = test system: ZEAMX (Corn, Field); assay: Preemergence herbicidal evaluation; assay type: in vivo, Zea mays; details: rated 4-5 weeks after treatment
Summary of the method: as §2

What does the source list for `CC(C)N1C(=O)CSC1=Nc1cc(-n2c(=O)cc(C(F)(F)F)n(C)c2=O)c(F)cc1Cl` [Compound 164, 3-{4-Chloro-2-fluoro-5-[(3-isopropyl-4-oxo-2-thiazolidinylidene)amino]phenyl}-1-methyl-6-(trifluoromethyl)-2,4(1H,3H)-pyrimidinedione]?
Herbicidal rating ABUTH ([1]; rate 0.0156 kg/ha): 9.0; Herbicidal rating ABUTH ([1]; rate 0.0313 kg/ha): 9.0; Herbicidal rating ABUTH ([1]; rate 0.0625 kg/ha): 9.0; Herbicidal rating ABUTH ([1]; rate 0.1250 kg/ha): 9.0; Herbicidal rating CHEAL ([2]; rate 0.0156 kg/ha): 9.0; Herbicidal rating CHEAL ([2]; rate 0.0313 kg/ha): 9.0; Herbicidal rating CHEAL ([2]; rate 0.0625 kg/ha): 9.0; Herbicidal rating CHEAL ([2]; rate 0.1250 kg/ha): 9.0; Herbicidal rating IPOHE ([3]; rate 0.0156 kg/ha): 9.0; Herbicidal rating IPOHE ([3]; rate 0.0313 kg/ha): 9.0; Herbicidal rating IPOHE ([3]; rate 0.0625 kg/ha): 9.0; Herbicidal rating IPOHE ([3]; rate 0.1250 kg/ha): 9.0; Herbicidal rating ECHCG ([4]; rate 0.0156 kg/ha): 2.0; Herbicidal rating ECHCG ([4]; rate 0.0313 kg/ha): 3.0; Herbicidal rating ECHCG ([4]; rate 0.0625 kg/ha): 3.0; Herbicidal rating ECHCG ([4]; rate 0.1250 kg/ha): 3.0; Herbicidal rating SETVI ([5]; rate 0.0156 kg/ha): 4.0; Herbicidal rating SETVI ([5]; rate 0.0313 kg/ha): 7.0; Herbicidal rating SETVI ([5]; rate 0.0625 kg/ha): 9.0; Herbicidal rating SETVI ([5]; rate 0.1250 kg/ha): 6.0; Herbicidal rating ORYSAT ([6]; rate 0.0156 kg/ha): 2.5; Herbicidal rating ORYSAT ([6]; rate 0.0313 kg/ha): 4.0; Herbicidal rating ORYSAT ([6]; rate 0.0625 kg/ha): 5.0; Herbicidal rating ORYSAT ([6]; rate 0.1250 kg/ha): 5.0; Herbicidal rating ZEAMX ([7]; rate 0.0156 kg/ha): 5.0; Herbicidal rating ZEAMX ([7]; rate 0.0313 kg/ha): 5.0; Herbicidal rating ZEAMX ([7]; rate 0.0625 kg/ha): 5.5; Herbicidal rating ZEAMX ([7]; rate 0.1250 kg/ha): 6.5; Preemergence herbicidal rating ABUTH ([8]; 0.0156 kg/ha): 6.0; Preemergence herbicidal rating ABUTH ([8]; 0.0313 kg/ha): 9.0; Preemergence herbicidal rating ABUTH ([8]; 0.0625 kg/ha): 9.0; Preemergence herbicidal rating ABUTH ([8]; 0.1250 kg/ha): 9.0; Preemergence herbicidal rating ABUTH ([8]; 0.2500 kg/ha): 9.0; Preemergence herbicidal rating ABUTH ([8]; 0.5000 kg/ha): 9.0; Preemergence herbicidal rating CASOB ([9]; 0.0156 kg/ha): 1.0; Preemergence herbicidal rating CASOB ([9]; 0.0313 kg/ha): 0.0; Preemergence herbicidal rating CASOB ([9]; 0.0625 kg/ha): 7.0; Preemergence herbicidal rating CASOB ([9]; 0.1250 kg/ha): 7.0; Preemergence herbicidal rating CASOB ([9]; 0.2500 kg/ha): 9.0; Preemergence herbicidal rating CASOB ([9]; 0.5000 kg/ha): 5.0; Preemergence herbicidal rating CHEAL ([10]; 0.0156 kg/ha): 9.0; Preemergence herbicidal rating CHEAL ([10]; 0.0313 kg/ha): 9.0; Preemergence herbicidal rating CHEAL ([10]; 0.0625 kg/ha): 9.0; Preemergence herbicidal rating CHEAL ([10]; 0.1250 kg/ha): 9.0; Preemergence herbicidal rating CHEAL ([10]; 0.2500 kg/ha): 9.0; Preemergence herbicidal rating CHEAL ([10]; 0.5000 kg/ha): 9.0; Preemergence herbicidal rating IPOHE ([11]; 0.0156 kg/ha): 4.0; Preemergence herbicidal rating IPOHE ([11]; 0.0313 kg/ha): 9.0; Preemergence herbicidal rating IPOHE ([11]; 0.0625 kg/ha): 9.0; Preemergence herbicidal rating IPOHE ([11]; 0.1250 kg/ha): 9.0; Preemergence herbicidal rating IPOHE ([11]; 0.2500 kg/ha): 9.0; Preemergence herbicidal rating IPOHE ([11]; 0.5000 kg/ha): 9.0; Preemergence herbicidal rating ECHCG ([12]; 0.0156 kg/ha): 0.0; Preemergence herbicidal rating ECHCG ([12]; 0.0313 kg/ha): 7.0; Preemergence herbicidal rating ECHCG ([12]; 0.0625 kg/ha): 7.0; Preemergence herbicidal rating ECHCG ([12]; 0.1250 kg/ha): 9.0; Preemergence herbicidal rating ECHCG ([12]; 0.2500 kg/ha): 9.0; Preemergence herbicidal rating ECHCG ([12]; 0.5000 kg/ha): 9.0; Preemergence herbicidal rating GLXMAW ([13]; 0.0156 kg/ha): 1.0; Preemergence herbicidal rating GLXMAW ([13]; 0.0313 kg/ha): 2.0; Preemergence herbicidal rating GLXMAW ([13]; 0.0625 kg/ha): 5.0; Preemergence herbicidal rating GLXMAW ([13]; 0.1250 kg/ha): 7.0; Preemergence herbicidal rating GLXMAW ([13]; 0.2500 kg/ha): 7.0; Preemergence herbicidal rating GLXMAW ([13]; 0.5000 kg/ha): 7.0; Preemergence herbicidal rating TRZAWR ([14]; 0.0156 kg/ha): 1.0; Preemergence herbicidal rating TRZAWR ([14]; 0.0313 kg/ha): 1.0; Preemergence herbicidal rating TRZAWR ([14]; 0.0625 kg/ha): 4.0; Preemergence herbicidal rating TRZAWR ([14]; 0.1250 kg/ha): 6.0; Preemergence herbicidal rating TRZAWR ([14]; 0.2500 kg/ha): 7.0; Preemergence herbicidal rating TRZAWR ([14]; 0.5000 kg/ha): 9.0; Preemergence herbicidal rating ZEAMX ([15]; 0.0156 kg/ha): 2.0; Preemergence herbicidal rating ZEAMX ([15]; 0.0313 kg/ha): 3.0; Preemergence herbicidal rating ZEAMX ([15]; 0.0625 kg/ha): 6.0; Preemergence herbicidal rating ZEAMX ([15]; 0.1250 kg/ha): 7.0; Preemergence herbicidal rating ZEAMX ([15]; 0.2500 kg/ha): 8.0; Preemergence herbicidal rating ZEAMX ([15]; 0.5000 kg/ha): 9.0
